Test results taken from US20220411449A1, “Method for Preparing Heteroleptic Triarylbismuthanes and Compounds Produced by the Same” (UNIVERSITY OF HAWAII, priority 2019, published 2022).
Values after ≈ are worked out from the molar mass of the structure shown.

How the values were obtained:
[1] = tested on: Vesicular Stomatitis Virus (Indiana strain); format: cell-based
Escherichia coli = assay: Disk diffusion zone of inhibition; settings: for Antibacterial activity against E. coli, in words: disk diffusion, at the concentration tested; for Zone of Inhibition, E. coli: disks with 1-5 μg compound/disk, positive control 30 μg Tetracycline, 22 hours at 37° C., LB agar
Staphylococcus aureus = assay: Disk diffusion zone of inhibition; settings: for Antibacterial activity against S. aureus, in words: disk diffusion, at the concentration tested; for Zone of Inhibition, S. aureus: disks with 1-5 μg compound/disk, positive control 5 μg Novobiocin, 22 hours at 37° C., LB agar
E. coli = assay: Minimum Inhibitory Concentration (MIC) determination, 96-well plates, OD600; settings: for MIC, E. coli: 24 hours at 37° C., compounds tested at 0-40 μg/mL in duplicate, Kanamycin 0-4 μg/mL
S. aureus = assay: as above; settings: for MIC, S. aureus: 24 hours at 37° C., compounds tested at 0-5 μg/mL in duplicate, Kanamycin 0-4 μg/mL

Structure (SMILES) | % Plaque Reduction [1] [%] | Antibacterial activity against E. coli, in words (Escherichia coli) | Zone of Inhibition, E. coli (Escherichia coli) [cm] | Antibacterial activity against S. aureus, in words (Staphylococcus aureus) | Zone of Inhibition, S. aureus (Staphylococcus aureus) | MIC, E. coli (E. coli) | MIC, S. aureus (S. aureus) | zone of inhibition at 30 µg/disc (Escherichia coli; Escherichia coli, 22 h, read-out: Zone of Inhibition, E. coli) [mm] | zone of inhibition at 5 µg/disc (Staphylococcus aureus; Staphylococcus aureus, 22 h, read-out: Zone of Inhibition, S. aureus) [mm] | MIC (E. coli; Escherichia coli, 24 h, read-out: MIC, E. coli) [µg/mL] | MIC (S. aureus; Staphylococcus aureus, 24 h, read-out: MIC, S. aureus) [µg/mL]
Cc1cc[c]([Bi]([O]S(=O)(=O)c2ccc(C)cc2)[O]S(=O)(=O)c2ccc(C)cc2)cc1 [Compound 21] | 38.7 | weaker antimicrobial activity against E. coli | 1 | most effective against S. aureus | 1.5 cm | 40 µg/mL | 1.25 μg/mL L |  |  |  | 
Cc1cc(C)[c]([Bi]([c]2ccccc2)[c]2ccccc2)c(C)c1 [Compound 5] |  | weaker antimicrobial activity against E. coli | 0 | most effective against S. aureus | 1.6 cm | 40 µg/mL | 0.625 µg/mL |  |  |  | 
Cc1cc[c]([Bi]([c]2ccc(C#N)cc2)[c]2ccc(C#N)cc2)cc1 [Compound 10] |  | little activity against E. coli | 0 | showed antibacterial activity against S. aureus | 0.9 cm |  |  |  |  |  | 
COc1cc[c]([Bi]([c]2c(C)cc(C)cc2C)[c]2c(C)cc(C)cc2C)cc1 [Compound 2] |  | little activity against E. coli | 0 | showed antibacterial activity against S. aureus | 1 cm |  |  |  |  |  | 
Cc1cc(C)[c]([Bi]([c]2ccc(C#N)cc2)[c]2c(C)cc(C)cc2C)c(C)c1 [Compound 13] |  | little activity against E. coli | 0 | showed antibacterial activity against S. aureus | 0.9 cm |  |  |  |  |  | 
Cc1cc(C)[c]([Bi]([I])[c]2c(C)cc(C)cc2C)c(C)c1 [Compound 23] |  | weaker antimicrobial activity against E. coli | 0.6 | most effective against S. aureus | 0.9-1.9 cm |  |  |  |  |  | 
COc1cc[c]([Bi]([c]2ccc(C)cc2)[c]2ccc(OC)cc2)cc1 [Compound 12] |  | little activity against E. coli | 0 | showed antibacterial activity against S. aureus | 1 cm |  |  |  |  |  | 
N#Cc1cc[c]([Bi]([c]2ccccc2)[c]2ccccc2)cc1 [Compound 6] |  |  | 0 |  | 0 cm |  |  |  |  |  | 
Cc1ccc(S(=O)(=O)[O][Bi]([O]S(=O)(=O)c2ccc(C)cc2)[c]2ccccc2)cc1 [Compound 16] | 81.8 |  | 1 |  | 1.8 cm | 20 µg/mL | 0.625 µg/mL |  |  |  | 
COc1cc[c]([Bi]([c]2ccc(C#N)cc2)[c]2ccc(C#N)cc2)cc1 [Compound 9] |  | little activity against E. coli | 0 | showed antibacterial activity against S. aureus | 1 cm |  |  |  |  |  | 
COC(OC)c1cc[c]([Bi]([c]2ccccc2)[c]2ccccc2)cc1 [Compound 1] |  |  | 0 |  | 0 cm |  |  |  |  |  | 
Cc1cc[c]([Bi]([O]S(=O)(=O)c2ccc(C)cc2)[O]S(=O)(=O)c2ccc(C)cc2)cc1 [Compound 22] |  |  | 0 |  |  |  |  |  |  |  | 
Cc1ccc(S(=O)(=O)[O][Bi]([c]2ccccc2)[c]2ccccc2)cc1 [Compound 14] | 29.7 | weaker antimicrobial activity against E. coli | 1.3 | most effective against S. aureus | 2.1 cm | 10 µg/mL | 0.625 µg/mL |  |  |  | 
COc1cc[c]([Bi]([c]2ccccc2)[c]2ccc(OC)cc2)cc1 [Compound 7] |  | little activity against E. coli | 0 | showed antibacterial activity against S. aureus | 1.1 cm |  |  |  |  |  | 
CN(C)[C@@H]1C(O)=C(C(N)=O)C(=O)[C@@]2(O)C(O)=C3C(=O)c4c(O)cccc4[C@@](C)(O)[C@H]3C[C@@H]12 [Tetracycline, reference compound] |  |  |  |  |  |  |  | 18 to 25 |  |  | 
CO[C@@H]1[C@@H](OC(N)=O)[C@@H](O)[C@H](Oc2ccc3c(O)c(NC(=O)c4ccc(O)c(CC=C(C)C)c4)c(=O)oc3c2C)OC1(C)C [Novobiocin, reference compound] |  |  |  |  |  |  |  |  | 20 to 25 |  | 
Cc1cc[c]([Bi]([O]S(=O)(=O)c2ccc(C)cc2)[c]2ccc(C)cc2)cc1 [Compound 19] | 76.6 | weaker antimicrobial activity against E. coli | 0.8 | most effective against S. aureus | 1.8 cm | No inhibition | 2.5 µg/mL |  |  |  | 
COC(=O)c1cc[c]([Bi]([c]2ccccc2)[c]2ccccc2)cc1 [Compound 4] |  |  | 0 |  | 0 cm |  |  |  |  |  | 
Cc1cc(C)[c]([Bi]([c]2ccccc2)[c]2c(C)cc(C)cc2C)c(C)c1 [Compound 8] |  | little activity against E. coli | 0 | showed antibacterial activity against S. aureus | 1 cm |  |  |  |  |  | 
NC[C@H]1O[C@H](O[C@H]2[C@H](O)[C@@H](O[C@H]3O[C@H](CO)[C@@H](O)[C@H](N)[C@H]3O)[C@H](N)C[C@@H]2N)[C@H](O)[C@@H](O)[C@@H]1O [Kanamycin, reference compound] |  |  |  |  |  |  |  |  |  | 0.0625 (≈ 0.129 µM) | 0.0625 (≈ 0.129 µM)
COc1cc[c]([Bi]([c]2ccccc2)[c]2ccccc2)cc1 [Compound 3] |  | little activity against E. coli | 0 | showed antibacterial activity against S. aureus | 1 cm |  |  |  |  |  | 
Cc1cc[c]([Bi]([c]2c(C)cc(C)cc2C)[c]2c(C)cc(C)cc2C)cc1 [Compound 11] |  | little activity against E. coli | 0 | showed antibacterial activity against S. aureus | 0.8 cm |  |  |  |  |  | 
[I][Bi]([c]1ccccc1)[c]1ccccc1 [Compound 18] | 99.95 | weaker antimicrobial activity against E. coli | 1.3 | most effective against S. aureus | 2.2 cm | 10 µg/mL | 0.625 µg/mL |  |  |  | 
